Laboratory results from patent US11229623B2 (GlaxoSmithKline Intellectual Property (No.2) Limited, priority 2016, dated 2022).
Structures can show the parent of a compound that is named as a salt.

Target: T1, human TRPV4 (Homo sapiens, UniProt Q9HBA0)
T1 construct: expressed in transfected cells; host or cells: BHK/AC9 cells transduced with BacMam virus
Assay: FLIPR assay for hTRPV4 expressed in BHK cells: inhibition of Agonist Compound-induced calcium signal
Assay type: cell-based
Conditions: hTRPV4 in BHK/AC9 cells, FLIPR calcium signal, agonist at EC80; reported as range class; read-out: IC50
Protocol: FLIPR Assay for hTRPV4 Expressed in BHK Cells:
TRPV4 channel activation results in an influx of divalent and monovalent cations including calcium. The resulting changes in intracellular calcium were monitored using a calcium specific fluorescent dye Fluo-4 (MDS Analytical Technologies). BHK/AC9 cells transduced with BacMam virus expressing the human TRPV4 gene at a MOI of 78 were plated in a 384 well poly-D lysine coated plate (15,000 cells/well in 50 μL culture medium containing DMEM/F12 with 15 mM HEPES, 10% FBS, 1% Penicillin-Streptomycin and 1% L-glutamine). Cells were incubated for 24 hours at 37° C. and 5% CO2. Culture medium was then aspirated using a Tecan plate-washer and replaced with 20 μL/well of dye loading buffer: HBSS, 500 μM Brilliant Black (MDS Analytical Technologies), and 2 μM Fluo-4 AM. Dye loaded plates were then incubated in the dark at room temperature for 1-1.5 hours.

T1 sequence (Q9HBA0 whole entry): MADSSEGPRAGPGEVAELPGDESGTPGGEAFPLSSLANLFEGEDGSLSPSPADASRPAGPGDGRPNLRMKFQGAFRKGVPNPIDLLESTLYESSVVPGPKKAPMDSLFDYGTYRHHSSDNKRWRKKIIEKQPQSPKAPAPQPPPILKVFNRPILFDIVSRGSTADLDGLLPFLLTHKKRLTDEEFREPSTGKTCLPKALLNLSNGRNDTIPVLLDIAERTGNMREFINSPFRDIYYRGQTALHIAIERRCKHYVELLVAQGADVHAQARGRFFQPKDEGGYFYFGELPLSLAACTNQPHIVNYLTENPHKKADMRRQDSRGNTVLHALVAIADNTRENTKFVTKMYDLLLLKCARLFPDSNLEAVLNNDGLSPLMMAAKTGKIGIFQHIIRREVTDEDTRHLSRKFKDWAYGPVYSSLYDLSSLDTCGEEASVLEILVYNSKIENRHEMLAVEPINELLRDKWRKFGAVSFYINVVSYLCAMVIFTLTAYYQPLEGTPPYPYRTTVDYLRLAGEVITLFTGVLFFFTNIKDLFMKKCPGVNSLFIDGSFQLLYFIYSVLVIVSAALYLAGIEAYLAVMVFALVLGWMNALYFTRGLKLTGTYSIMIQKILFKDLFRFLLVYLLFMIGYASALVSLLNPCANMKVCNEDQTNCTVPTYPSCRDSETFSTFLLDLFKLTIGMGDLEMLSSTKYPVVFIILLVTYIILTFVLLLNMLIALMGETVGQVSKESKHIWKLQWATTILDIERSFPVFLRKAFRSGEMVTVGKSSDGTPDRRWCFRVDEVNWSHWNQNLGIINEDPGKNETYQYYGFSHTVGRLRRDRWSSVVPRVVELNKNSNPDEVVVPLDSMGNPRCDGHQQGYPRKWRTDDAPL

Row | Compound | IC50 [nM]
1 | N#Cc1ccc(O[C@H]2CN(S(=O)(=O)c3cccc(OC(F)F)n3)C[C@@]2(O)CO)cc1F [Example 134, 4-(((3S,4R)-1-((6-(difluoromethoxy)pyridin-2-yl)sulfonyl)-4-hydroxy-4-(hydroxymethyl)pyrrolidin-3-yl)oxy)-2-fluorobenzonitrile] | 10 to 100
2 | N#Cc1ccc(O[C@H]2CN(S(=O)(=O)c3c(Cl)cc(Cl)cc3Cl)C[C@@]2(O)CO)cc1F [Example 77, 2-fluoro-4-(((3S,4R)-4-hydroxy-4-(hydroxymethyl)-1-((2,4,6-trichlorophenyl)sulfonyl)pyrrolidin-3-yl)oxy)benzonitrile] | 10 to 100
3 | CC(=O)c1ccc(S(=O)(=O)N2C[C@H](Oc3ccc(C#N)c(F)c3)[C@](O)(CO)C2)c(C#N)c1 [Example 72, 4-(((3S,4R)-1-((4-acetyl-2-cyanophenyl)sulfonyl)-4-hydroxy-4-(hydroxymethyl)pyrrolidin-3-yl)oxy)-2-fluorobenzonitrile] | 10 to 100
4 | N#Cc1ccc(O[C@H]2CN(S(=O)(=O)c3ccc(C#N)nc3)C[C@@]2(O)CO)c(OCC(F)(F)F)c1 [Example 184, 5-(((3R,4S)-4-(4-cyano-2-(2,2,2-trifluoroethoxy)phenoxy)-3-hydroxy-3-(hydroxymethyl)pyrrolidin-1-yl)sulfonyl) picolinonitrile] | 10 to 100
5 | Cn1ncc(Cl)c1S(=O)(=O)N1C[C@H](Oc2ccc(C#N)c(F)c2)[C@](O)(CN)C1 [Example 241, 4-(((3S,4S)-4-(aminomethyl)-1-((4-chloro-1-methyl-1H-pyrazol-5-yl)sulfonyl)-4-hydroxpyrrolidin-3-yl)oxy)-2-fluorobenzonitrile, 2,2,2-trifluoroacetate] | 10 to 100
6 | N#Cc1ncccc1S(=O)(=O)N1C[C@H](Oc2ccc(Cl)cc2)[C@](O)(CO)C1 [Example 110, 3-(((3R,4S)-4-(4-chlorophenoxy)-3-hydroxy-3-(hydroxymethyl)pyrrolidin-1-yl)sulfonyl)picolinonitrile] | 10 to 100
7 | N#Cc1ccc(S(=O)(=O)N2C[C@H](Oc3ccc(Cl)cc3)[C@](O)(CO)C2)cn1 [Example 109, 5-(((3R,4S)-4-(4-chlorophenoxy)-3-hydroxy-3-(hydroxymethyl)pyrrolidin-1-yl)sulfonyl)picolinonitrile] | 10 to 100
8 | CC(C)COc1cc(C#N)c(F)cc1O[C@H]1CN(S(=O)(=O)c2ccccc2C#N)C[C@@]1(O)CO [Example 179, 4-(((3S,4R)-1-((2-cyanophenyl)sulfonyl)-4-hydroxy-4-(hydroxymethyl)pyrrolidin-3-yl)oxy)-2-fluoro-5-isobutoxybenzonitrile] | 0.1 to 10
9 | N#Cc1ccc(O[C@H]2CN(S(=O)(=O)c3ccc(C(F)(F)F)nc3)C[C@@]2(O)CN)cc1F [Example 245, 4-(((3S,4S)-4-(aminomethyl)-4-hydroxy-1-((6-(trifluoromethyl)pyridin-3-yl)sulfonyl)pyrrolidin-3-yl)oxy)-2-fluorobenzonitrile, Hydrochloride] | 10 to 100
10 | CC(C)COc1cc(C#N)c(F)cc1O[C@H]1CN(S(=O)(=O)c2ccc(C(F)(F)F)cc2)C[C@@]1(O)CO [Example 182, 2-fluoro-4-(((3S,4R)-4-hydroxy-4-(hydroxymethyl)-1-((4-(trifluoromethyl)phenyl)sulfonyl)pyrrolidin-3-yl)oxy)-5-isobutoxybenzonitrile] | 10 to 100
11 | COc1ccc(S(=O)(=O)N2C[C@H](Oc3ccc(C#N)c(F)c3)[C@@](O)(CO)C2)c(C#N)c1 [Example 145, 4-(((3S,4S)-1-((2-cyano-4-methoxyphenyl)sulfonyl)-4-hydroxy-4-(hydroxymethyl)pyrrolidin-3-yl)oxy)-2-fluorobenzonitrile] | 10 to 100
12 | C#Cc1ccc(S(=O)(=O)N2C[C@H](Oc3ccc(C#N)c(F)c3)[C@](O)(CO)C2)nc1 [Example 228, 4-(((3S,4R)-1-((5-ethynylpyridin-2-yl)sulfonyl)-4-hydroxy-4-(hydroxymethyl)pyrrolidin-3-yl)oxy)-2-fluorobenzonitrile] | 10 to 100
13 | N#Cc1ccc(O[C@H]2CN(S(=O)(=O)c3ccc(CC(F)(F)F)cc3)C[C@@]2(O)CO)cc1F [Example 111, 2-fluoro-4-(((3S,4R)-4-hydroxy-4-(hydroxymethyl)-1-((4-(2,2,2-trifluoroethyl)phenyl)sulfonyl)pyrrolidin-3-yl)oxy)benzonitrile] | 10 to 100
14 | N#Cc1ccc(O[C@H]2CN(S(=O)(=O)c3c(Cl)cc(Cl)cc3Cl)C[C@@]2(O)CO)cn1 [Example 76, 5-(((3S,4R)-4-hydroxy-4-(hydroxymethyl)-1-((2,4,6-trichlorophenyl)sulfonyl)pyrrolidin-3yl)oxy)picolinonitrile] | 10 to 100
15 | N#Cc1ccc(O[C@H]2CN(S(=O)(=O)c3ccc(C(F)(F)F)cc3C#N)C[C@@]2(O)CO)cc1OC(F)(F)F [Example 21, 4-(((3S,4R)-1-((2-cyano-4-(trifluoromethyl)phenyl)sulfonyl)-4-hydroxy-4-(hydroxymethyl)pyrrolidin-3-yl)oxy)-2-(trifluoromethoxy)benzonitrile] | 10 to 100

Second part, the compound after the results:

Row | IC50 [nM] | Compound
16 | 0.1 to 10 | N#Cc1cc(OCC(F)(F)F)c(O[C@H]2CN(S(=O)(=O)c3ccc(Cl)cn3)C[C@@]2(O)CO)cc1F [Example 187, 4-(((3S,4R)-1-((5-chloropyridin-2-yl)sulfonyl)-4-hydroxy-4-(hydroxymethyl)pyrrolidin-3-yl)oxy)-2-fluoro-5-(2,2,2-trifluoroethoxy) benzonitrile]
17 | 10 to 100 | N#Cc1ccc(S(=O)(=O)N2C[C@H](Oc3cc(F)c(C#N)cc3F)[C@](O)(CO)C2)cn1 [Example 82, 5-(((3R,4S)-4-(4-cyano-2,5-difluorophenoxy)-3-hydroxy-3-(hydroxymethyl)pyrrolidin-1-yl)sulfonyl)picolinonitrile]
18 | 0.1 to 10 | N#Cc1ccc(O[C@H]2CN(S(=O)(=O)c3ccc(I)cc3Cl)C[C@@]2(O)CO)cc1F [Example 115, 4-(((3S,4R)-1-((2-chloro-4-iodophenyl)sulfonyl)-4-hydroxy-4-(hydroxymethyl)pyrrolidin-3-yl)oxy)-2-fluorobenzonitrile]
19 | 0.1 to 10 | N#Cc1cc(Cl)ccc1S(=O)(=O)N1C[C@H](Oc2cc(F)c(F)cc2F)[C@](O)(CO)C1 [Example 24, 5-chloro-2-(((3R,4S)-3-hydroxy-3-(hydroxymethyl)-4-(2,4,5-trifluorophenoxy)pyrrolidin-1-yl)sulfonyl)benzonitrile]
20 | 0.1 to 10 | N#Cc1ccc(O[C@H]2CN(S(=O)(=O)c3ccc(Cl)cc3C#N)C[C@]2(O)CO)cc1F [Example 139, 4-(((3S,4S)-1-((4-chloro-2-cyanophenyl)sulfonyl)-4-hydroxy-4-(hydroxymethyl)pyrrolidin-3-yl)oxy)-2-fluorobenzonitrile]
21 | 0.1 to 10 | C[C@H](O)[C@]1(O)CN(S(=O)(=O)c2ccc(C(F)(F)F)cc2C#N)C[C@@H]1Oc1ccc(C#N)c(F)c1 [Example 190, 4-(((3S,4R)-1-((2-cyano-4-(trifluoromethyl)phenyl)sulfonyl)-4-hydroxy-4-(1-hydroxyethyl)pyrrolidin-3-yl)oxy)-2-fluorobenzonitrile]
22 | 0.1 to 10 | N#Cc1cc(Cl)ccc1S(=O)(=O)N1C[C@H](Oc2cc(F)c(F)c(F)c2)[C@](O)(CO)C1 [Example 22, 5-chloro-2-(((3R,4S)-3-hydroxy-3-(hydroxymethyl)-4-(3,4,5-trifluorophenoxy)pyrrolidin-1-yl)sulfonyl)benzonitrile]
23 | 0.1 to 10 | N#Cc1ccc(O[C@H]2CN(S(=O)(=O)c3cccc(Cl)c3C#N)C[C@@]2(O)CO)cc1F [Example 95, 4-(((3S,4R)-1-((3-chloro-2-cyanophenyl)sulfonyl)-4-hydroxy-4-(hydroxymethyl)pyrrolidin-3-yl)oxy)-2-fluorobenzonitrile]
24 | 0.1 to 10 | C[C@H](O)[C@]1(O)CN(S(=O)(=O)c2ccc(Cl)cc2C#N)C[C@@H]1Oc1ccc(C#N)c(F)c1 [Example 202, 4-(((3S,4R)-1-((4-chloro-2-cyanophenyl)sulfonyl)-4-hydroxy-4-((S)-1-hydroxyethyl)pyrrolidin-3-yl)oxy)-2-fluorobenzonitrile]
25 | 0.1 to 10 | CCOc1cc(C#N)ccc1O[C@H]1CN(S(=O)(=O)c2ccc(C(F)(F)F)cc2C#N)C[C@@]1(O)CO [Example 12, 2-(((3R,4S)-4-(4-cyano-2-ethoxyphenoxy)-3-hydroxy-3-(hydroxymethyl)pyrrolidin-1-yl)sulfonyl)-5-(trifluoromethyl)benzonitrile]
26 | 0.1 to 10 | N#Cc1cc(F)ccc1S(=O)(=O)N1C[C@H](Oc2ccc(Cl)cc2)[C@](O)(CO)C1 [Example 155, 2-(((3R,4S)-4-(4-chlorophenoxy)-3-hydroxy-3-(hydroxymethyl)pyrrolidin-1-yl)sulfonyl)-5-fluorobenzonitrile]
27 | 0.1 to 10 | N#Cc1cc(C(F)(F)F)ccc1S(=O)(=O)N1C[C@H](Oc2cc(F)c(F)cc2F)[C@](O)(CO)C1 [Example 27, 2-(((3R,4S)-3-hydroxy-3-(hydroxymethyl)-4-(2,4,5-trifluorophenoxy)pyrrolidin-1-yl)sulfonyl)-5-(trifluoromethyl)benzonitrile]
28 | 0.1 to 10 | N#Cc1ccc(O[C@H]2CN(S(=O)(=O)c3ccc(C(F)(F)F)cc3C#N)C[C@@]2(O)CO)c(Cl)c1 [Example 14, 2-(((3R,4S)-4-(2-chloro-4-cyanophenoxy)-3-hydroxy-3-(hydroxymethyl)pyrrolidin-1-yl)sulfonyl)-5-(trifluoromethyl)benzonitrile]
29 | 0.1 to 10 | N#Cc1cc(F)c(O[C@H]2CN(S(=O)(=O)c3ccc(C(F)(F)F)cc3C#N)C[C@@]2(O)CO)cc1F [Example 19, 4-(((3S,4R)-1-((2-cyano-4-(trifluoromethyl)phenyl)sulfonyl)-4-hydroxy-4-(hydroxymethyl)pyrrolidin-3-yl)oxy)-2,5-difluorobenzonitrile]
